Measured values reported in patent US12060351B2, “Thiadiazole IRAK4 inhibitors” (Gilead Sciences, Inc., priority 2018, dated 2024).

test system: TNFα; test: IRAK4 Monocyte TNFα Cell Based Assay (LPS-stimulated, TR-FRET TNFα detection); set-up: species or system human; details: Homo sapiens, Monocyte, human monocytes, LPS-stimulated; Table 2 second part (compounds 33-343); read-out: EC50 MONO TNF HTRF
Description: IRAK4 Monocyte TNFα Cell Based Assay Procedure:
The cell suspension was then plated at a density of 5,000 cells/well onto black 384 well Greiner clear bottom plates. Plates were pre-spotted with test compounds and serially diluted in DMSO where 40 nL/well were delivered using the Echo 550 acoustic liquid dispenser (Labcyte®) for a final DMSO concentration of 0.1%. Plated cells were treated with compound for 1 hour at 37° C. Cells were then stimulated with 50 pg/ml of LPS (Sigma) excluding outside columns of plate used for unstimulated cell control wells. Cells were incubated for an additional 4 hours at 37° C. Cells were then spun out of the media and 5 μl of sample were taken and analyzed for total TNFα content using the TR-FRET Human TNFα detection system (CisBio). This system utilizes two labeled antibodies (cryptate and XL665) that bind to two different epitopes of the TNFα molecule and produce FRET signal proportional to the concentration of TNFα in the sample. Detection antibodies are mixed 50:50 and 5 μL were dispensed into each well. Plates were covered with clear seals and incubated at room temp overnight. […] Percent of control was calculated as follows: % Control=100×(RatioSample−Ratio0% Stimulation)/(Ratio100% Stimulation−Ratio0% Stimulation) where unstimulated cells (0% stimulation) were the negative control and stimulated cells (100% stimulation) were used as the positive control.

Compound	EC50
CC(C)Nc1cc(-c2ccc3cc(C#N)cnn23)ncc1-c1nnc(N2CCS(=O)(=O)CC2)s1 [Compound 257, 7-(5-(5-(1,1-dioxidothiomorpholino)-1,3,4-thiadiazol-2-yl)-4-(isopropylamino)pyridin-2-yl)pyrrolo[1,2-b]pyridazine-3-carbonitrile]	≥ 10000 nM
CC(=O)N[C@@H]1[C@@H]2CC[C@H]1CN(c1nnc(-c3cnc(-c4ccc5cc(C#N)cnn45)cc3N[C@H](C)C#N)s1)C2 [Example 53, N-((1R,5S,8S)-3-(5-(4-(((R)-1-cyanoethyl)amino)-6-(3-cyanopyrrolo[1,2-b]pyridazin-7-yl)pyridin-3-yl)-1,3,4-thiadiazol-2-yl)-3-azabicyclo[3.2.1]octan-8-yl)acetamide]	0.6 nM
CC(=O)NC12CCC(c3nnc(-c4cnc(-c5ccc6cc(C#N)cnn56)cc4N[C@H](C)C#N)s3)(CC1)CC2 [Example 72, (R)-N-(4-(5-(4-((1-cyanoethyl)amino)-6-(3-cyanopyrrolo[1,2-b]pyridazin-7-yl)pyridin-3-yl)-1,3,4-thiadiazol-2-yl)bicyclo[2.2.2]octan-1-yl)acetamide]	2.8 nM
CC(C)Nc1cc(-c2ccc3cc(C#N)cnn23)ncc1-c1nnc(N2C[C@H]3CC[C@@H](C2)[C@@H]3NC(=O)[C@@H](C)O)s1 [Example 90, (R)-N-((1R,5S,8s)-3-(5-(6-(3-cyanopyrrolo[1,2-b]pyridazin-7-yl)-4-(isopropylamino)pyridin-3-yl)-1,3,4-thiadiazol-2-yl)-3-azabicyclo[3.2.1]octan-8-yl)-2-hydroxypropanamide]	3.6 nM
CC(C)Nc1cc(-c2ccc3cc(C#N)cnn23)ncc1-c1nnc(N2C[C@H]3CC[C@@H](C2)[C@@H]3NC(=O)N2CCN(C)CC2)s1 [Example 96, N-((1R,5S,8s)-3-(5-(6-(3-cyanopyrrolo[1,2-b]pyridazin-7-yl)-4-(isopropylamino)pyridin-3-yl)-1,3,4-thiadiazol-2-yl)-3-azabicyclo[3.2.1]octan-8-yl)-4-methylpiperazine-1-carboxamide]	2.3 nM
CC(=O)N1CCN(C(=O)N[C@@H]2[C@@H]3CC[C@H]2CN(c2nnc(-c4cnc(-c5ccc6cc(C#N)cnn56)cc4NC(C)C)s2)C3)CC1 [Example 104, 4-acetyl-N-((1R,5S,8s)-3-(5-(6-(3-cyanopyrrolo[1,2-b]pyridazin-7-yl)-4-(isopropylamino)pyridin-3-yl)-1,3,4-thiadiazol-2-yl)-3-azabicyclo[3.2.1]octan-8-yl)piperazine-1-carboxamide]	1.7 nM

same assay, conditions: Homo sapiens, Monocyte, read-out: EC50 MONO TNF HTRF

Compound	EC50
C[C@H](C#N)Nc1cc(-c2ccc3cc(C#N)cnn23)ncc1-c1nnc(N2CC3CC(C2)N3C(=O)C(C)(C)O)s1 [Example 115, 7-(4-(((R)-1-cyanoethyl)amino)-5-(5-(6-(2-hydroxy-2-methylpropanoyl)-3,6-diazabicyclo[3.1.1]heptan-3-yl)-1,3,4-thiadiazol-2-yl)pyridin-2-yl)pyrrolo[1,2-b]pyridazine-3-carbonitrile]	3.5 nM

same assay, conditions: human monocytes, LPS-stimulated; Table 2 second part (compounds 33-343); read-out: EC50 MONO TNF HTRF

EC50	Compound
18.4 nM	CC(C)Nc1cc(-c2ccc3cc(C#N)cnn23)ncc1-c1nnc(N2CC3CC(C2)N3C(=O)CN=S(C)(C)=O)s1 [Example 107, 7-(5-(5-(6-(2-((dimethyl(oxo)-16-sulfanylidene)amino)acetyl)-3,6-diazabicyclo[3.1.1]heptan-3-yl)-1,3,4-thiadiazol-2-yl)-4-(isopropylamino)pyridin-2-yl)pyrrolo[1,2-b]pyridazine-3-carbonitrile]
13.1 nM	CC1(Nc2cc(-c3ccc4cc(C#N)cnn34)ncc2-c2nnc(N3CC4CC(C3)N4C(=O)C(C)(C)O)s2)COC1 [Example 112, 7-(5-(5-(6-(2-hydroxy-2-methylpropanoyl)-3,6-diazabicyclo[3.1.1]heptan-3-yl)-1,3,4-thiadiazol-2-yl)-4-((3-methyloxetan-3-yl)amino)pyridin-2-yl)pyrrolo[1,2-b]pyridazinc-3-carbonitrile]
